Test results reported in article PMC5153397 (EJNMMI Research, 2016).
Where two headings read alike, the source gives them in different places.

Assays:
[1] = cited from earlier work
Description: Table 3 Absorbed kidney dose and effective dose of ^18F-labeled tracer and metal-labeled exendin PET and SPECT tracers | column: Kidney dose [mSv/MBq]; Effective dose [mSv/MBq]

[2] = set-up: method as in PMID 12629557; details: rat; cited from earlier work
[3] = molecular target: T1, GLP-1R-rich areas from rat brain (Rattus norvegicus, UniProt P32301); assay: In vitro binding in rat brain sections (autoradiography); details: lateral septum, 1.25 nM (Fig. 7)
T1 construct: We dissected a rat pancreas and brain and froze them immediately after dissection; from tissue; host or cells: rat brain (GLP-1R-rich areas): in vivo injection with ex vivo read-out, and frozen sections in vitro
T1 sequence (P32301 22-463): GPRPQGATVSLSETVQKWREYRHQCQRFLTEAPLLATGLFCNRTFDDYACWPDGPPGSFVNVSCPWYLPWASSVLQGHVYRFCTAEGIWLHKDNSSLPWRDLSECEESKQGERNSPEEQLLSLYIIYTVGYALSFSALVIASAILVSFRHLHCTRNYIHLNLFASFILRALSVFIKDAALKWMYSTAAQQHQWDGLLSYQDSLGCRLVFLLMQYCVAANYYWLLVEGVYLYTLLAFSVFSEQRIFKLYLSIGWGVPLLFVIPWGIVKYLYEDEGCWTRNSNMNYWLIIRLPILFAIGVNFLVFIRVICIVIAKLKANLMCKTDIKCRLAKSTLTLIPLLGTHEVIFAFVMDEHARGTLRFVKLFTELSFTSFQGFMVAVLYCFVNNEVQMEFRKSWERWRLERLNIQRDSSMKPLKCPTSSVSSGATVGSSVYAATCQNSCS
Protocol: We acquired a piece of human pancreas that was frozen immediately after surgery. We dissected a rat pancreas and brain and froze them immediately after dissection. Prior to incubations with ligand, the tissue sections of human and rat pancreas and GLP-1R-rich areas from rat brain [19] were incubated for 30 min with 1% BSA in PBS (pH 7.4). […] To investigate tracer specificity, sections were incubated for 30 min with an excess of cold exendin-3 prior to adding [^18F]exendin-4. Sections were then washed and exposed to imaging plates, as described above (ex vivo autoradiography). Next, sections were stained and processed, as described above.

[4] = molecular target: T2, GLP-1R in pancreatic islets (Rattus norvegicus, UniProt P32301); assay: In vitro binding in rat pancreas sections (autoradiography)
T2 construct: We dissected a rat pancreas and brain and froze them immediately after dissection; from tissue; host or cells: rat pancreas (islets): in vivo injection followed by ex vivo autoradiography, and frozen sections in vitro
T2 sequence (P32301 22-463): T1 sequence (P32301 22-463)
Protocol: (§1) We acquired a piece of human pancreas that was frozen immediately after surgery. We dissected a rat pancreas and brain and froze them immediately after dissection. Prior to incubations with ligand, the tissue sections of human and rat pancreas and GLP-1R-rich areas from rat brain [19] were incubated for 30 min with 1% BSA in PBS (pH 7.4). Then, sections were incubated for 60 min with various concentrations of [^18F]exendin-4 (range 2.5–20 nM) in vitro. To investigate tracer specificity, sections were incubated for 30 min with an excess of cold exendin-3 prior to adding [^18F]exendin-4. Sections were then washed and exposed to imaging plates, as described above (ex vivo autoradiography). Next, sections were stained and processed, as described above.

[5] = set-up: species or system human
Protocol: Absorbed doses were calculated with OLINDA/EXM1.0 software, which includes radionuclide information and a selection of human body phantoms. Rat ex vivo biodistributions were estimated by integrating the area under the time–activity curves. The obtained residence times were converted into corresponding human values by multiplying with organ-specific factors that scaled organs to body weights, as follows: (W TB,rat/W Organ,rat) × (W Organ,human/W TB,human), where W TB,rat and W TB,human are the total body weights of rats and humans (70-kg male), respectively; and W Organ,rat and W Organ,human are the organ weights of rats and humans (70-kg male), respectively.

GLP-1R in the islets [6] = molecular target: T3, GLP-1R in the islets (Rattus norvegicus, UniProt P32301); assay: Ex vivo autoradiography of rat pancreas; assay type: in vivo
T3 construct: We dissected a rat pancreas and brain and froze them immediately after dissection; from tissue; host or cells: rat pancreas (islets): in vivo injection followed by ex vivo autoradiography, and frozen sections in vitro
T3 sequence (P32301 22-463): T1 sequence (P32301 22-463)
Protocol: Rats were anesthetized with isoflurane/O2 and injected (i.v.) with [^18F]exendin-4 (radioactivity 23 ± 5 MBq/kg, mass 2 ± 1 μg/kg). After injection, animals were allowed to recover from the anesthesia (except animal sacrificed 15 min p.i.). We further investigated tracer distribution in the brain by injecting one rat with a highly radioactive dose (50 MBq) of [^18F]exendin-4. Animals were sacrificed at 15, 30, 60, 120, 240, and 360 min (N = 2–11 rats/time point). Blood was extracted, and selected organs were dissected and weighed. Tissue radioactivity was measured with a γ-counter (Wizard, PerkinElmer, Turku, Finland). Tracer specificity was tested by co-injecting radiolabeled exendin-4 with an excess of cold exendin-3 (3 mg/kg) (Peptide Specialty Laboratories GmbH). Measurements were corrected for radionuclide decay, and results were reported as the percentage of the injected dose of radioactivity per gram of tissue (%ID/g).
The kidney, pancreas, and brain were sectioned and exposed to imaging plates (Fuji BAS-TR2025; Fuji Photo Film Co., Tokyo, Japan) for approximately 4 h. Imaging plates were scanned with a BAS-5000 scanner (Fuji Photo Film Co.) and the images were analyzed with AIDA 4.5 software (Raytest, Isotopenmessgeräte, Straubenhardt, Germany). Three pancreatic sections per rat were analyzed (N = 2–8 rats/time point). We determined the mean density values (photostimulated luminescence per square millimeter, PSL/mm^2) of ten prominently labeled islets and of the exocrine tissue and corrected for background noise. Finally, the islet-to-exocrine tissue ratio was calculated. […] The pancreatic sections used for autoradiography were then stained with insulin antibody (1’ mouse-anti-insulin, Nordic Biosite, Täby, Sweden, 2’ MAHC1 mouse probe, Biocare Medical, Concord, CA, USA), counterstained with hematoxylin, and imaged with a Slide Scanner (Pannoramic 250 F, 3DHistech, Budapest, Hungary).

[7] = molecular target: T4, GLP1-R-rich areas of rat brain (Rattus norvegicus, UniProt P32301); details: in vivo
T4 construct: We dissected a rat pancreas and brain and froze them immediately after dissection; from tissue; host or cells: rat brain (GLP-1R-rich areas): in vivo injection with ex vivo read-out, and frozen sections in vitro
T4 sequence (P32301 22-463): T1 sequence (P32301 22-463)
Protocol: The in vivo kinetics of [^18F]exendin-4 were evaluated with the Inveon Multimodality PET/CT scanner (Siemens, Knoxville, TN, USA). Rats were anesthetized with isoflurane/O2 and injected intravenously (i.v.) with [^18F]exendin-4 (radioactivity 23 ± 5 MBq/kg, mass 2 ± 1 μg/kg). PET scans were acquired for up to 6 h (dynamic 0–60 min; static 210–240 min and 330–360 min; N = 2–5 rats/scan). The data were reconstructed with the ordered subset expectation maximization OSEM2D algorithm. Analyses were performed with Inveon Research Workplace 3 software (Siemens), after defining the volumes of interest (VOIs) on selected tissues.
Rats were anesthetized with isoflurane/O2 and injected (i.v.) with [^18F]exendin-4 (radioactivity 23 ± 5 MBq/kg, mass 2 ± 1 μg/kg). […] Tissue radioactivity was measured with a γ-counter (Wizard, PerkinElmer, Turku, Finland). […] Measurements were corrected for radionuclide decay, and results were reported as the percentage of the injected dose of radioactivity per gram of tissue (%ID/g).
The kidney, pancreas, and brain were sectioned and exposed to imaging plates (Fuji BAS-TR2025; Fuji Photo Film Co., Tokyo, Japan) for approximately 4 h. Imaging plates were scanned with a BAS-5000 scanner (Fuji Photo Film Co.) and the images were analyzed with AIDA 4.5 software (Raytest, Isotopenmessgeräte, Straubenhardt, Germany). […] Finally, the islet-to-exocrine tissue ratio was calculated. […]

GLP-1R in the islets [8] = molecular target: T5, GLP-1R in the islets (Homo sapiens, UniProt P43220); assay: In vitro binding in human pancreas sections (autoradiography); details: human pancreatic tissue sections
T5 construct: We acquired a piece of human pancreas that was frozen immediately after surgery; from tissue; host or cells: human pancreas, frozen surgical specimen, sections
T5 sequence (P43220 24-463): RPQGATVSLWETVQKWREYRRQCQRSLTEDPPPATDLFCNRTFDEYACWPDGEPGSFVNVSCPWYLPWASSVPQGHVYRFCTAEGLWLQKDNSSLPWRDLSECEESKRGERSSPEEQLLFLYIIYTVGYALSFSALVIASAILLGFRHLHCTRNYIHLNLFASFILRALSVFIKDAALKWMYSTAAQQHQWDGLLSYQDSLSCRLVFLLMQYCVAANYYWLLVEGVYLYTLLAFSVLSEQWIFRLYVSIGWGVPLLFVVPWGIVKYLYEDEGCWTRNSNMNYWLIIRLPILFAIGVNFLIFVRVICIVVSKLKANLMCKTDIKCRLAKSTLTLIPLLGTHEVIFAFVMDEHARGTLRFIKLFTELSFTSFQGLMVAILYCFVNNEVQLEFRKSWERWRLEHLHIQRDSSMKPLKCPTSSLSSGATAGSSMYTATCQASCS
Protocol: as §1

[9] = pig, in vivo
Protocol: In addition, the stability of [^18F]exendin-4 was determined in pig plasma. Prior to blood sampling, animals were anesthetized (midazolam 1 mg/kg, xylazine 4 mg/kg intramuscular), connected to a respirator, and ventilated mechanically. Anesthesia was maintained with an i.v. infusion of propofol (10–20 mg/kg/h) and fentanyl (4–8 μg/kg/h). Vital signs were monitored throughout the study. Pigs were injected (radioactivity 1.2 ± 0.2 MBq/kg, mass 0.14 ± 0.04 μg/kg) and blood was sampled at 5, 15, 30, 60, and 180 min p.i. (N = 3 samples/time point). Plasma was treated and analyzed as described above.

In the case of “[^64Cu]NODAGA-exendin-4: metal-labeled exendin PET tracer, ref 3”, the Effective dose [1] is listed as 0.074 mSv/MBq and the Kidney dose [1] is listed as 1.48 mSv/MBq.

In the case of “[^111In]DTPA-exendin-4: metal-labeled exendin SPECT tracer”, the Effective dose [1] is listed as 0.155 mSv/MBq and the Kidney dose [1] is listed as 4.48 mSv/MBq.

For exendin-4, the “blood–brain barrier crossing” value [2] is given as “crossed the blood–brain barrier”.

With “^18F-labeled [Nle^14,Lys^40]exendin-4 [[^18F]exendin-4]” the “labeling of GLP-1R areas in brain in vitro” value [3] was “clearly labeled”, the “islet labeling in vitro” value ([4]; 60 min incubation, 2.5 nM (Fig. 6), autoradiography) was “islet labeling was observed” and the “islet labeling in vitro with blocking” value ([4]; excess of cold exendin-3 added) was “not detected”. For the same substance, the Effective dose [5] was 0.021 mSv/MBq, the “absorbed radiation dose, LLI (lower large intestine) wall” value [5] was 0.003 mSv/MBq and the “absorbed radiation dose, ULI (upper large intestine) wall” value [5] was 0.005 mSv/MBq. The “absorbed radiation dose, adrenal glands” value [5] was 0.016 mSv/MBq, the “absorbed radiation dose, brain” value [5] was 0.004 mSv/MBq and the “absorbed radiation dose, breasts” value [5] was 0.004 mSv/MBq. For the same substance, the “absorbed radiation dose, gallbladder wall” value [5] was 0.011 mSv/MBq, the “absorbed radiation dose, heart wall” value [5] was 0.010 mSv/MBq and the “absorbed radiation dose, liver” value [5] was 0.026 mSv/MBq. For the same substance, the “absorbed radiation dose, lungs” value [5] was 0.071 mSv/MBq, the “absorbed radiation dose, muscle” value [5] was 0.005 mSv/MBq and the “absorbed radiation dose, osteogenic cells” value [5] was 0.045 mSv/MBq. For the same substance, the “absorbed radiation dose, ovaries” value [5] was 0.003 mSv/MBq, the “absorbed radiation dose, pancreas” value [5] was 0.023 mSv/MBq and the “absorbed radiation dose, red bone marrow” value [5] was 0.009 mSv/MBq. The “absorbed radiation dose, skin” value [5] was 0.003 mSv/MBq, the “absorbed radiation dose, small intestine” value [5] was 0.005 mSv/MBq and the “absorbed radiation dose, spleen” value [5] was 0.022 mSv/MBq. For the same substance, the “absorbed radiation dose, stomach wall” value [5] was 0.007 mSv/MBq, the “absorbed radiation dose, testes” value [5] was 0.001 mSv/MBq and the “absorbed radiation dose, thymus” value [5] was 0.005 mSv/MBq. For the same substance, the “absorbed radiation dose, thyroid” value [5] was 0.003 mSv/MBq, the “absorbed radiation dose, total body” value [5] was 0.009 mSv/MBq and the “absorbed radiation dose, urinary bladder wall” value [5] was 0.002 mSv/MBq. The “absorbed radiation dose, uterus” value [5] was 0.003 mSv/MBq, the “islet labeling with blocking” value (GLP-1R in the islets [6]; co-injected with excess cold exendin-3, ex vivo autoradiography) was “not visible” and the islet-to-exocrine tissue ratio (GLP-1R in the islets [6]; ex vivo autoradiography, PSL/mm^2 of ten islets vs exocrine tissue, N = 2–8 rats/time point) was “increased over time”. The “tracer uptake in pancreatic islets” value (GLP-1R in the islets [6]; i.v., ex vivo autoradiography, 60 min p.i. (Fig. 5a), verified by insulin staining) was “tracer uptake was observed”, the “blood–brain barrier crossing” value [7] was “did not cross the blood–brain barrier” and the “tracer binding in human pancreatic islets with blocking” value (GLP-1R in the islets [8]; excess cold exendin-3 added) was “no [^18F]exendin-4 binding was observed”. For the same substance, the “tracer binding in human pancreatic islets” value (GLP-1R in the islets [8]; various concentrations (2.5–20 nM), 60 min, autoradiography, verified by insulin immunostaining) was “clearly visible”, the arrhythmia after administration [9] was “arrhythmia was observed” and the “blood pressure after administration” value [9] was “decreased”. For the same substance, the “body temperature after administration” value [9] was 41 °C and the “heart rate after administration” value [9] was 230–250 beats/min.
